In the NIST ThermoML archive (doi:10.1007/s10765-010-0766-0):
Several values for one entry are separate records, joined by “and”; a condition that tells them apart may be missing. Equal entries are not always repeated.

Assay: wn = mass fraction of the nth substance listed
Details: Liquid, Pycnometric method, w2 = 0.4981

FC(F)C(F)(F)F [pentafluoroethane] + FCF
Details | mass density
277.15 K, 11982 kPa | 1205.5 kg/m3
278.15 K, 12826 kPa | 1205.4 kg/m3
279.15 K, 13669 kPa | 1205.2 kg/m3
280.15 K, 14512 kPa | 1205.1 kg/m3
281.15 K, 15355 kPa | 1204.9 kg/m3
282.15 K, 16198 kPa | 1204.8 kg/m3
283.15 K, 17040 kPa | 1204.6 kg/m3
284.15 K, 17881 kPa | 1204.5 kg/m3
285.15 K, 18722 kPa | 1204.3 kg/m3
286.15 K, 19563 kPa | 1204.2 kg/m3
287.15 K, 20403 kPa | 1204 kg/m3
288.15 K, 21239 kPa | 1203.8 kg/m3
289.15 K, 22077 kPa | 1203.7 kg/m3
291.15 K, 23750 kPa | 1203.4 kg/m3
292.15 K, 24585 kPa | 1203.2 kg/m3
293.15 K, 25420 kPa | 1203 kg/m3
294.15 K, 26254 kPa | 1202.9 kg/m3
295.15 K, 27085 kPa | 1202.7 kg/m3
296.15 K, 27917 kPa | 1202.5 kg/m3
297.15 K, 8118 kPa | 1113.5 kg/m3
297.15 K, 28747 kPa | 1202.3 kg/m3
298.15 K, 29575 kPa | 1202.2 kg/m3
299.15 K, 9422 kPa | 1113.3 kg/m3
300.15 K, 10072 kPa | 1113.2 kg/m3
300.15 K, 10089 kPa | 1113.1 kg/m3
301.15 K, 10723 kPa | 1113.1 kg/m3
301.15 K, 10737 kPa | 1113 kg/m3
302.15 K, 11374 kPa | 1113 kg/m3
302.15 K, 11385 kPa | 1112.9 kg/m3
303.15 K, 12024 kPa | 1112.9 kg/m3
303.15 K, 12032 kPa | 1112.8 kg/m3
304.15 K, 12672 kPa | 1112.8 kg/m3
304.15 K, 12680 kPa | 1112.7 kg/m3
305.15 K, 13320 kPa | 1112.6 kg/m3
305.15 K, 13327 kPa | 1112.5 kg/m3
306.15 K, 13970 kPa | 1112.5 kg/m3
306.15 K, 13973 kPa | 1112.4 kg/m3
307.15 K, 14620 kPa | 1112.4 kg/m3 and 1112.3 kg/m3
308.15 K, 15268 kPa | 1112.3 kg/m3 and 1112.2 kg/m3
309.15 K, 15915 kPa | 1112.1 kg/m3
309.15 K, 15917 kPa | 1112.1 kg/m3
310.15 K, 16562 kPa | 1111.9 kg/m3
310.15 K, 16564 kPa | 1112 kg/m3
311.15 K, 17208 kPa | 1111.8 kg/m3
311.15 K, 17212 kPa | 1111.9 kg/m3
312.15 K, 17853 kPa | 1111.7 kg/m3
312.15 K, 17859 kPa | 1111.7 kg/m3
313.15 K, 18499 kPa | 1111.6 kg/m3
313.15 K, 18506 kPa | 1111.6 kg/m3
314.15 K, 19144 kPa | 1111.4 kg/m3
314.15 K, 19153 kPa | 1111.5 kg/m3
315.15 K, 19788 kPa | 1111.3 kg/m3
315.15 K, 19798 kPa | 1111.3 kg/m3
316.15 K, 20432 kPa | 1111.2 kg/m3
316.15 K, 20443 kPa | 1111.2 kg/m3
317.15 K, 21075 kPa | 1111 kg/m3
317.15 K, 21088 kPa | 1111.1 kg/m3
318.15 K, 21719 kPa | 1110.9 kg/m3
318.15 K, 21733 kPa | 1110.9 kg/m3
319.15 K, 22362 kPa | 1110.7 kg/m3
319.15 K, 22377 kPa | 1110.8 kg/m3
320.15 K, 23005 kPa | 1110.6 kg/m3
320.15 K, 23021 kPa | 1110.7 kg/m3
321.15 K, 23648 kPa | 1110.5 kg/m3
321.15 K, 23665 kPa | 1110.5 kg/m3
322.15 K, 24289 kPa | 1110.3 kg/m3
322.15 K, 24307 kPa | 1110.4 kg/m3
323.15 K, 24930 kPa | 1110.2 kg/m3
323.15 K, 24949 kPa | 1110.3 kg/m3
324.15 K, 25571 kPa | 1110 kg/m3
324.15 K, 25590 kPa | 1110.1 kg/m3
325.15 K, 26210 kPa | 1109.9 kg/m3
325.15 K, 26231 kPa | 1110 kg/m3
326.15 K, 26850 kPa | 1109.8 kg/m3
326.15 K, 26871 kPa | 1109.8 kg/m3
327.15 K, 27488 kPa | 1109.6 kg/m3
327.15 K, 27511 kPa | 1109.7 kg/m3
328.15 K, 28127 kPa | 1109.4 kg/m3
328.15 K, 28150 kPa | 1109.5 kg/m3
329.15 K, 5865 kPa | 921.2 kg/m3
329.15 K, 5904 kPa | 921.4 kg/m3
329.15 K, 28764 kPa | 1109.3 kg/m3
329.15 K, 28790 kPa | 1109.4 kg/m3
330.15 K, 6231 kPa | 921.1 kg/m3
330.15 K, 6255 kPa | 921.2 kg/m3
330.15 K, 6269 kPa | 921.3 kg/m3
330.15 K, 29402 kPa | 1109.1 kg/m3
330.15 K, 29426 kPa | 1109.2 kg/m3
331.15 K, 6598 kPa | 921 kg/m3
331.15 K, 6620 kPa | 921.1 kg/m3
331.15 K, 6635 kPa | 921.2 kg/m3
331.15 K, 30065 kPa | 1109.1 kg/m3
332.15 K, 6965 kPa | 921 kg/m3
332.15 K, 6987 kPa | 921 kg/m3
332.15 K, 7002 kPa | 921.1 kg/m3
333.15 K, 7333 kPa | 920.9 kg/m3
333.15 K, 7355 kPa | 921 kg/m3
333.15 K, 7370 kPa | 921.1 kg/m3
334.15 K, 7700 kPa | 920.8 kg/m3
334.15 K, 7723 kPa | 920.9 kg/m3
334.15 K, 7736 kPa | 921 kg/m3
335.15 K, 8069 kPa | 920.7 kg/m3
335.15 K, 8090 kPa | 920.8 kg/m3
335.15 K, 8104 kPa | 920.9 kg/m3
336.15 K, 8438 kPa | 920.7 kg/m3
336.15 K, 8457 kPa | 920.7 kg/m3
336.15 K, 8472 kPa | 920.8 kg/m3
337.15 K, 8807 kPa | 920.6 kg/m3
337.15 K, 8826 kPa | 920.6 kg/m3
337.15 K, 8840 kPa | 920.8 kg/m3
338.15 K, 9176 kPa | 920.5 kg/m3
338.15 K, 9194 kPa | 920.5 kg/m3
338.15 K, 9209 kPa | 920.7 kg/m3
339.15 K, 9546 kPa | 920.4 kg/m3
339.15 K, 9563 kPa | 920.4 kg/m3
339.15 K, 9579 kPa | 920.6 kg/m3
340.15 K, 9916 kPa | 920.3 kg/m3
340.15 K, 9933 kPa | 920.3 kg/m3
340.15 K, 9949 kPa | 920.5 kg/m3
341.15 K, 10286 kPa | 920.3 kg/m3
341.15 K, 10302 kPa | 920.2 kg/m3
341.15 K, 10320 kPa | 920.4 kg/m3
342.15 K, 10657 kPa | 920.2 kg/m3
342.15 K, 10672 kPa | 920.1 kg/m3
342.15 K, 10691 kPa | 920.4 kg/m3
343.15 K, 11028 kPa | 920.1 kg/m3
343.15 K, 11043 kPa | 920.1 kg/m3
343.15 K, 11061 kPa | 920.3 kg/m3
344.15 K, 11399 kPa | 920.1 kg/m3
344.15 K, 11413 kPa | 920 kg/m3
344.15 K, 11431 kPa | 920.2 kg/m3
345.15 K, 6187 kPa | 774 kg/m3
345.15 K, 11770 kPa | 920 kg/m3
345.15 K, 11784 kPa | 919.9 kg/m3
345.15 K, 11802 kPa | 920.1 kg/m3
346.15 K, 6420 kPa | 774.1 kg/m3
346.15 K, 12143 kPa | 919.9 kg/m3
346.15 K, 12155 kPa | 919.8 kg/m3
346.15 K, 12174 kPa | 920.1 kg/m3
347.15 K, 6655 kPa | 774 kg/m3
347.15 K, 6657 kPa | 773.9 kg/m3
347.15 K, 12515 kPa | 919.8 kg/m3
347.15 K, 12527 kPa | 919.7 kg/m3
347.15 K, 12547 kPa | 920 kg/m3
348.15 K, 6890 kPa | 773.9 kg/m3
348.15 K, 6893 kPa | 773.9 kg/m3
348.15 K, 12887 kPa | 919.8 kg/m3
348.15 K, 12899 kPa | 919.6 kg/m3
348.15 K, 12919 kPa | 919.9 kg/m3
349.15 K, 7127 kPa | 773.9 kg/m3
349.15 K, 7130 kPa | 773.8 kg/m3
349.15 K, 13259 kPa | 919.7 kg/m3
349.15 K, 13271 kPa | 919.6 kg/m3
349.15 K, 13292 kPa | 919.8 kg/m3
350.15 K, 7364 kPa | 773.8 kg/m3
350.15 K, 7368 kPa | 773.8 kg/m3
350.15 K, 13631 kPa | 919.6 kg/m3
350.15 K, 13643 kPa | 919.5 kg/m3
350.15 K, 13664 kPa | 919.7 kg/m3
351.15 K, 7602 kPa | 773.8 kg/m3
351.15 K, 7606 kPa | 773.7 kg/m3
351.15 K, 14004 kPa | 919.5 kg/m3
351.15 K, 14015 kPa | 919.4 kg/m3
351.15 K, 14036 kPa | 919.6 kg/m3
352.15 K, 7841 kPa | 773.7 kg/m3
352.15 K, 7845 kPa | 773.6 kg/m3
352.15 K, 14377 kPa | 919.4 kg/m3
352.15 K, 14387 kPa | 919.3 kg/m3
352.15 K, 14409 kPa | 919.6 kg/m3
353.15 K, 8080 kPa | 773.7 kg/m3
353.15 K, 8084 kPa | 773.6 kg/m3
353.15 K, 14750 kPa | 919.3 kg/m3
353.15 K, 14761 kPa | 919.2 kg/m3
353.15 K, 14783 kPa | 919.5 kg/m3
354.15 K, 8320 kPa | 773.6 kg/m3
354.15 K, 8324 kPa | 773.5 kg/m3
354.15 K, 15123 kPa | 919.2 kg/m3
354.15 K, 15133 kPa | 919.1 kg/m3
354.15 K, 15157 kPa | 919.4 kg/m3
355.15 K, 8560 kPa | 773.6 kg/m3
355.15 K, 8565 kPa | 773.5 kg/m3
355.15 K, 15496 kPa | 919.1 kg/m3
355.15 K, 15507 kPa | 919 kg/m3
355.15 K, 15531 kPa | 919.3 kg/m3
356.15 K, 8801 kPa | 773.5 kg/m3
356.15 K, 8806 kPa | 773.4 kg/m3
356.15 K, 15869 kPa | 919.1 kg/m3
356.15 K, 15880 kPa | 919 kg/m3
356.15 K, 15904 kPa | 919.2 kg/m3
